Measurements taken from patent publication US5658500A, “Substituted naphthopyrans” (Transitions Optical, Inc., priority 1995, dated 1997).

What was measured:
[1] = lambda max of the activated (colored) form in the visible spectrum; type: physicochemical; design: unit not given here; conditions: wavelength of maximum absorption of the activated form, in a diethylene glycol bis(allyl carbonate) composition
Method: (§1) Testing was done with the photochromic naphthopyrans of the Examples incorporated or imbibed into test square polymerizates by one of two different methods. In Method I, the photochromic naphthopyrans of the Examples were incorporated into polymeric samples. The quantity of naphthopyran calculated to yield a 1.5 times 10^-3 molal solution was added to a flask containing 50 grams of a monomer blend of 4 parts ethoxylated bisphenol A dimethacrylate (BPA 2EO DMA), 1 part poly(ethyleneglycol) 600 dimethacrylate, and 0,033 weight percent 2,2'-azobis(2-methyl propionitrile) (AIBN). The naphthopyrans were dissolved into the monomer blend by stirring and gentle heating, if necessary. After a clear solution was obtained, it was poured into a flat sheet mold having the interior dimensions of 2.2 mm×6 inches (15.24 cm)×6 inches (15.24 cm). The mold was sealed and placed in a horizontal air flow, programmable oven set to increase the temperature from 40° C. to 95° C. over a 5 hour interval, hold the temperature at 95° C. for 3 hours and then lower it to 60° C. for at least 2 hours before the end of the curing cycle. After the molds were opened, the polymer sheets were cut using a diamond blade saw into 2 inch (5.1 centimeters) test squares.
(§2) In Method II, the photochromic naphthopyran was imbibed into test square polymerizates prepared from a diethylene glycol bis(allyl carbonate) composition. The test squares measured 1/8 inch (0.3 centimeters)×2 inches (5.1 centimeters)×2 inches (5.1 centimeters). In the imbibition process, the photochromic naphthopyran was dissolved to form a 10 weight percent solution in a 1:9 mixture of ethyl cellulose:toluene. The solution was then spin coated onto the test squares and allowed to dry. Samples were then heated in a hot-air oven at 135°-155°C. for a period of time sufficient to thermally transfer the photochromic into the test squares. […] After cooling, the ethyl cellulose/toluene resin film was removed from the test squares by washing with acetone.
The ΔOD/Min, which represents the sensitivity of the photochromic compound's response to UV light, was measured over the first five (5) seconds of UV exposure, then expressed on a per minute basis. The saturation optical density (OD) was taken under identical conditions as the ΔOD/Min, except UV exposure was continued for 20 minutes for the examples in Table 1. The lambda max reported in Table 1 is the wavelength in the visible spectrum at which the maximum absorption of the activated (colored) form of the photochromic compound in a diethylene glycol bis(allyl carbonate) composition occurs. The Bleach Rate (T 1/2) is the time interval in seconds for the absorbance of the activated form of the naphthopyran in the test squares to reach one half the highest absorbance at room temperature (75° F., 23.9° C.) after removal of the source of activating light.

[2] = photochromic response of test squares on an optical bench (sensitivity, saturation optical density, bleach rate); type: physicochemical; conditions: for ΔOD @ SATURATION: UV exposure 20 minutes; for ΔOD @ SATURATION / ΔOD/MIN SENSITIVITY: 75° F. (23.9° C.); for ΔOD/MIN SENSITIVITY: first five seconds of UV exposure, expressed per minute; for Bleach Rate (T1/2): room temperature (75° F., 23.9° C.) after removal of activating light
Method: as §1
as §2, with “dry.” for “dry. Samples were then heated in a hot-air oven at 135°-155°C. for a period of time sufficient to thermally transfer the photochromic into the test squares.”
The photochromic test squares were tested for photochromic response rates on an optical bench. […] The bench was fitted with a 150 watt Xenon arc lamp, a remote controlled shutter, a copper sulfate bath acting as a heat sink for the arc lamp, a Schott WG-320 nm cut-off filter which removes short wavelength radiation; neutral density filter(s) and a sample holder in which the square to be tested was inserted. A collimated beam of light from a tungsten lamp was passed through the square at a small angle normal to the square. After passing through the square, the light from the tungsten lamp was directed through a photopic filter attached to a detector. The photopic filter passes wavelengths such that the detector mimics the response of the human eye. The output signals from the detector(s) were processed by a radiometer.
Change in optical density (ΔOD) was determined by inserting a test square in the bleached state into the sample holder, adjusting the transmittance scale to 100%, opening the shutter from the Xenon lamp to provide ultraviolet radiation to change the test square from the bleached state to an activated (i.e., darkened) state, measuring the transmittance in the activated state, and calculating the change in optical density according to the formula ΔOD=log(100/%Ta) where %Ta is the percent transmittance in the activated state and the logarithm is to the base 10.
The ΔOD/Min, which represents the sensitivity of the photochromic compound's response to UV light, was measured over the first five (5) seconds of UV exposure, then expressed on a per minute basis. The saturation optical density (OD) was taken under identical conditions as the ΔOD/Min, except UV exposure was continued for 20 minutes for the examples in Table 1. The lambda max reported in Table 1 is the wavelength in the visible spectrum at which the maximum absorption of the activated (colored) form of the photochromic compound in a diethylene glycol bis(allyl carbonate) composition occurs.

[3] = Method II (imbibed) test square

Row | Structure (SMILES) | LAMBDA MAX (VISIBLE) [1] | ΔOD @ SATURATION ([2]; Method I test square) | ΔOD/MIN SENSITIVITY ([2]; Method I test square) | Bleach Rate (T1/2) ([2]; Method I test square) | ΔOD @ SATURATION [2, 3] | ΔOD/MIN SENSITIVITY [2, 3] | Bleach Rate (T1/2) [2, 3]
1 | COC(=O)c1c2c(c3ccccc3c1O)OC(c1ccccc1)(c1ccc(N3CCOCC3)cc1)C=C2 (centres unmarked) [Example 1, 2-(4-morpholinophenyl)-2-phenyl-5-methoxycarbonyl-6-hydroxy-2H-naphtho[1,2-b]pyran] | 511 | 1.36 | 0.64 ΔOD/MIN | 3.22 min | – | – | –
2 | COC(=O)c1c2c(c3ccccc3c1OC)OC(c1ccccc1)(c1ccc(N3CCOCC3)cc1)C=C2 (centres unmarked) [Example 2, 2-(4-morpholinophenyl)-2-phenyl-5-methoxycarbonyl-6-methoxy-2H-naphtho[1,2-b]pyran] | 541 | 0.95 | 0.29 ΔOD/MIN | 4.87 min | – | – | –
3 | COC(=O)c1c2c(c3ccccc3c1OC(C)=O)OC(c1ccccc1)(c1ccc(N3CCOCC3)cc1)C=C2 (centres unmarked) [Example 3, 2-(4-morpholinophenyl)-2-phenyl-5-methoxycarbonyl-6-acetoxy-2H-naphtho[1,2-b]pyran] | 545 | 0.31 | 0.24 ΔOD/MIN | 1.47 min | – | – | –
4 | CCn1c2ccccc2c2ccc(C3(c4ccccc4)C=Cc4c(C(=O)OC)c(OC(C)=O)c5ccccc5c4O3)cc21 (centres unmarked) [Example 4, 2-(9-ethylcarbazol-2-yl)-2-phenyl-5-methoxycarbonyl-6-acetoxy-2H-naphtho[1,2-b]pyran] | 528 | – | – | – | 0.46 | 0.67 ΔOD/MIN | 4.5 min
5 | COC(=O)c1c2c(c3ccccc3c1OC(C)=O)OC(c1ccccc1)(c1ccc3c4ccccc4n(-c4ccccc4)c3c1)C=C2 (centres unmarked) [Example 5, 2-(9-phenylcarbazol-2-yl)-2-phenyl-5-methoxycarbonyl-6-acetoxy-2H-naphtho[1,2-b]pyran] | 520 | 0.88 | 0.31 ΔOD/MIN | 1.17 min | – | – | –
6 | COC(=O)c1c2c(c3ccccc3c1OC(C)=O)OC(c1ccccc1)(c1ccc(N(C)C)cc1)C=C2 (centres unmarked) [Example 6, 2-(4-dimethylaminophenyl)-2-phenyl-5-methoxycarbonyl-6-acetoxy-2H-naphtho[1,2-b]pyran] | 591 | 0.30 | 0.27 ΔOD/MIN | 1.17 min | – | – | –
7 | COC(=O)c1c2c(c3ccccc3c1C)OC(c1ccccc1)(c1ccc(N(C)C)cc1)C=C2 (centres unmarked) [Example 7, 2-(4-dimethylaminophenyl)-2-phenyl-5-methoxycarbonyl-6-methyl-2H-naphtho[1,2-b]pyran] | 584 | 0.51 | 0.20 ΔOD/MIN | 3.33 min | – | – | –
8 | COC(=O)c1c2c(c3ccccc3c1OC(C)=O)OC(c1ccc(N(C)C)cc1)(c1ccc(N(C)C)cc1)C=C2 [Example 8, 2,2-bis (4-dimethylaminophenyl)-5-methoxycarbonyl-6-acetoxy-2H-naphtho[1,2-b]pyran] | 618 | 0.07 | 0.16 ΔOD/MIN | 0.317 min | – | – | –
